Laboratory results: patent US20260191807A1, “COMPOSITIONS AND METHODS FOR TREATMENT OF PRADER-WILLI SYNDROME” (ERX Pharmaceuticals Inc., priority 2022, published 2026)
Where two headings read alike, the source gives them in different places.

Tests used:
Participants with PWS = conditions: cited from earlier work; for weight change, mean difference: p<0.0001
C57BL/6 DIO mice [1] = assay: Body weights of C57BL/6 DIO mice during daily treatment; format: in vivo; conditions: Celastrol 0.2 mg/kg IP daily; for Body weights (expressed as a percentage of day-1 weight) / Body weights (in grams): Belaronib 0.3 mg/kg SC, mean
C57BL/6 DIO mice [2] = assay: Nestlet shredding test in C57BL/6 DIO mice; format: in vivo; conditions: Belaronib 0.3 mg/kg SC, Celastrol 0.2 mg/kg IP daily, mean
Method: (§1) C57BL/6 mice were treated with test compound (Celastrol) or controls as shown in the table below from Day 1 to Day 15. […] One mouse was excluded from the study because it appeared resistant to nestlet shredding prior to treatment.
(§2) Male C57BL/6 DIO mice were obtained from Jackson Labs (Bar Harbor, ME). The mice arrived at ages 17 weeks and mice were housed 3 per cage on arrival. Prior to dosing in the study, the mice were singly housed.
(§3) All treatment volumes were 10 mL/kg. Utilizing the art-recognized nestlet shredding mouse model, […]. Celastrol and the vehicle control were administered intraperitoneally using a 30G needle. Beloranib was administered subcutaneously using a 30G needle. All treatments were administered daily in the afternoon at 17:00 h, 1 hour before dark cycle from Day 1 to end of dosing.
(§4) Celastrol was dissolved in a pharmaceutically-acceptable excipient, e.g., 50% Solutol/50% DMAC, and this stock solution aliquoted and stored at −80° C. until treatment day. On the day of treatment, an aliquot of the stock solution was thawed and diluted […] with saline to obtain the desired dosing solution strength in 5% Solutol/5% dimethylacetamide/90% saline. The vehicle control was 5% Solutol/5% dimethylacetamide/90% saline. Beloranib was dissolved in 100% DMSO, and this stock solution was aliquoted and stored at −80° C. until treatment day. On the day of treatment, an aliquot of the stock solution was thawed and diluted 1:10 with deionized (DI) water to obtain the desired dosing solution strength in 10% DMSO.
The nestlet shredding test is an art-recognized animal model for human repetitive, anxiety, and/or compulsive behaviors. In the nestlet shredding test, a nestlet comprised of pulped fiber, e.g., cotton fiber, is preweighed and placed on top of cage bedding and the amount of the nestlet remaining intact after a test session of pre-determined time is evaluated.
Nestlet shredding was determined on day 1, day 6, day 11 and day 15 by placing a fresh nestlet prior to the dark cycle and measuring the weight of the remaining nestlet at 12 and 24 hours on an Ohaus model CS 200 balance. Percent shredding was calculated based on the initial nestlet weight.

C57BL/6 DIO mice [3] = assay: Daily food intake of C57BL/6 DIO mice; format: in vivo; conditions: for Food intake (food weights in g/day): Belaronib 0.3 mg/kg SC, Celastrol 0.2 mg/kg IP daily, mean
Method: as §1, §2, §3, §4
Daily food intake was calculated based on remaining food weight compared to food weight on the previous day using an Ohaus model CS 200 balance.

CO[C@@H]1[C@H](OC(=O)/C=C/c2ccc(OCCN(C)C)cc2)CC[C@]2(CO2)[C@H]1[C@@]1(C)O[C@@H]1CC=C(C)C [Belaronib, Beloranib, reference compound]
weight change, mean difference (Participants with PWS; 1.8 mg beloranib injection biweekly for 26 weeks, 95% CI −10.8 to −5.6): −8.2%
most frequent adverse event (Participants with PWS; 1.8 mg or 2.4 mg injection biweekly): Injection site bruising
weight change, mean difference (Participants with PWS; 2.4 mg beloranib injection biweekly for 26 weeks, 95% CI −12.1 to −6.8): −9.5%
venous thrombotic events in beloranib-treated participants (Participants with PWS; imbalance compared to placebo, dosing stopped early): two fatal events of pulmonary embolism and two events of deep vein thrombosis
Body weights (expressed as a percentage of day-1 weight) (C57BL/6 DIO mice [1]; Day 1): 100.0%
Body weights (in grams) (C57BL/6 DIO mice [1]; Day 1): 46.4 grams
Body weights (expressed as a percentage of day-1 weight) (C57BL/6 DIO mice [1]; Day 2): 98.0%
Body weights (in grams) (C57BL/6 DIO mice [1]; Day 2): 45.5 grams
Body weights (expressed as a percentage of day-1 weight) (C57BL/6 DIO mice [1]; Day 3): 96.1%
Body weights (in grams) (C57BL/6 DIO mice [1]; Day 3): 44.6 grams
Body weights (expressed as a percentage of day-1 weight) (C57BL/6 DIO mice [1]; Day 4): 94.0%
Body weights (in grams) (C57BL/6 DIO mice [1]; Day 4): 43.6 grams
Body weights (expressed as a percentage of day-1 weight) (C57BL/6 DIO mice [1]; Day 5): 91.0%
Body weights (in grams) (C57BL/6 DIO mice [1]; Day 5): 42.2 grams
Body weights (expressed as a percentage of day-1 weight) (C57BL/6 DIO mice [1]; Day 6): 87.7%
Body weights (in grams) (C57BL/6 DIO mice [1]; Day 6): 40.7 grams
Body weights (expressed as a percentage of day-1 weight) (C57BL/6 DIO mice [1]; Day 7): 85.2%
Body weights (in grams) (C57BL/6 DIO mice [1]; Day 7): 39.5 grams
Body weights (expressed as a percentage of day-1 weight) (C57BL/6 DIO mice [1]; Day 8): 83.1%
Body weights (in grams) (C57BL/6 DIO mice [1]; Day 8): 38.5 grams
Body weights (expressed as a percentage of day-1 weight) (C57BL/6 DIO mice [1]; Day 9): 80.6%
Body weights (in grams) (C57BL/6 DIO mice [1]; Day 9): 37.4 grams
Body weights (expressed as a percentage of day-1 weight) (C57BL/6 DIO mice [1]; Day 10): 79.2%
Body weights (in grams) (C57BL/6 DIO mice [1]; Day 10): 36.7 grams
Body weights (expressed as a percentage of day-1 weight) (C57BL/6 DIO mice [1]; Day 11): 77.9%
Body weights (in grams) (C57BL/6 DIO mice [1]; Day 11): 36.1 grams
Body weights (expressed as a percentage of day-1 weight) (C57BL/6 DIO mice [1]; Day 12): 77.1%
Body weights (in grams) (C57BL/6 DIO mice [1]; Day 12): 35.7 grams
Body weights (expressed as a percentage of day-1 weight) (C57BL/6 DIO mice [1]; Day 13): 76.2%
Body weights (in grams) (C57BL/6 DIO mice [1]; Day 13): 35.3 grams
Body weights (expressed as a percentage of day-1 weight) (C57BL/6 DIO mice [1]; Day 14): 75.2%
Body weights (in grams) (C57BL/6 DIO mice [1]; Day 14): 34.8 grams
Body weights (expressed as a percentage of day-1 weight) (C57BL/6 DIO mice [1]; Day 15): 74.4%
Body weights (in grams) (C57BL/6 DIO mice [1]; Day 15): 34.5 grams
body weight lost (percentage of day 1 body weight) (C57BL/6 DIO mice [1]; at day 15, Beloranib 0.3 mg/kg SC, vehicle-treated mice lost 15.5%): 25.6%
Nestlet Shredding (percent of nestlet shredded) (C57BL/6 DIO mice [2]; Day 1, 12 hour): 95.5%
Nestlet Shredding (percent of nestlet shredded) (C57BL/6 DIO mice [2]; Day 6, 12 hour): 11.9%
Nestlet Shredding (percent of nestlet shredded) (C57BL/6 DIO mice [2]; Day 6, 24 hour): 15.7%
Nestlet Shredding (percent of nestlet shredded) (C57BL/6 DIO mice [2]; Day 11, 12 hour): 3.8%
Nestlet Shredding (percent of nestlet shredded) (C57BL/6 DIO mice [2]; Day 11, 24 hour): 5.2%
Nestlet Shredding (percent of nestlet shredded) (C57BL/6 DIO mice [2]; Day 15, 12 hour): 27.6%
Nestlet Shredding (percent of nestlet shredded) (C57BL/6 DIO mice [2]; Day 15, 24 hour): 32.9%
cumulative food intake, average total for the study (C57BL/6 DIO mice [3]; 15-day study, Beloranib 0.3 mg/kg SC, celastrol 0.2 mg/kg IP daily, vehicle 32.6 g): 28.1 g/mouse
effect on food intake (in words) (C57BL/6 DIO mice [3]; Celastrol compared with positive control Beloranib): rebounded
Food intake (food weights in g/day) (C57BL/6 DIO mice [3]; Day 1): 3.1 g/day
Food intake (food weights in g/day) (C57BL/6 DIO mice [3]; Day 2): 1.5 g/day
Food intake (food weights in g/day) (C57BL/6 DIO mice [3]; Day 3): 2.3 g/day
Food intake (food weights in g/day) (C57BL/6 DIO mice [3]; Day 4): 1.9 g/day
Food intake (food weights in g/day) (C57BL/6 DIO mice [3]; Day 5): 1.4 g/day
Food intake (food weights in g/day) (C57BL/6 DIO mice [3]; Day 6): 1.2 g/day
Food intake (food weights in g/day) (C57BL/6 DIO mice [3]; Day 7): 1.1 g/day
Food intake (food weights in g/day) (C57BL/6 DIO mice [3]; Day 8): 1.5 g/day
Food intake (food weights in g/day) (C57BL/6 DIO mice [3]; Day 9): 1.1 g/day
Food intake (food weights in g/day) (C57BL/6 DIO mice [3]; Day 10): 1.9 g/day
Food intake (food weights in g/day) (C57BL/6 DIO mice [3]; Day 11): 2.2 g/day
Food intake (food weights in g/day) (C57BL/6 DIO mice [3]; Day 12): 2.6 g/day
Food intake (food weights in g/day) (C57BL/6 DIO mice [3]; Day 13): 2.2 g/day
Food intake (food weights in g/day) (C57BL/6 DIO mice [3]; Day 14): 2.2 g/day
Food intake (food weights in g/day) (C57BL/6 DIO mice [3]; Day 15): 2.1 g/day
food intake after rebound, similar to vehicle (C57BL/6 DIO mice [3]; day 10-11, 0.3 mg/kg SC daily): 2.2 g/day/mouse
food intake, nadir (C57BL/6 DIO mice [3]; reduction initiated on day 2-3, 0.3 mg/kg SC daily): 1.1 g/day/mouse
